Data set [1] addresses Plasmepsin-2 (PM-2; Plm II) (Plasmodium falciparum (isolate HB3), UniProt P46925). The experiment in a line: Plasmepsin-2 enzyme inhibition assay. The class given is biochemical. In a few lines: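 Enzymes activated in pH 4.5 citrate/DTT buffer, then assayed in 50 mM sodium acetate pH 4.7, 0.01% Tween-20. Compounds added before fluorogenic peptide substrate (final 20 µM); 60 min at room temperature, fluorescence Ex/Em 360/535 nm, IC50 by curve fit.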

Data set [2] concerns Plasmodium falciparum 3D7 (CQ-sensitive). The experiment in a line: In vitro antimalarial assay (malaria SYBR Green I-based fluorescence, MSF), 3D7. The class given is cell-based. The procedure, abridged:
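Asynchronous P. falciparum 3D7 cultures (0.5% parasitemia, 2% hematocrit) were exposed to serially diluted compounds, in quadruplicate. Growth was then quantified by SYBR Green I fluorescence after adding lysis buffer containing 0.2 μL/mL dye.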

Data set [3] deals with HepG2 cells. The experiment in a line: HepG2 cytotoxicity assay. Conditions: Homo sapiens, 72 hours. It is filed as cell-based. The protocol:
HepG2 cells (ATCC Cat. No. HB-8065) were maintained in DMEM supplemented with 10% fetal bovine serum and L-glutamine. Cells were grown at 37° C. and 5% CO2 on flasks coated with poly-d-lysine. To assess compounds for potential cytotoxic properties cells were plated at 10,000 cells per well on 96-well poly-d-lysine plates at 10,000 cells per well. HepG2 cells were allowed to adhere for at least 4 hours prior to application of test compounds. Cells were incubated with test compounds for 72 hours before measuring cellular viability. Cellular viability was measured using PrestoBlue® Cell Viability Reagent (Life Technologies). Briefly, 11 μL of 10× PrestoBlue reagent was added to 100 μl in each assay well. Cells were incubated at 37° C. and 5% CO2 for 30 minutes prior to reading on Tecan Safire2, excitation at 560 nm, 10 nm bandwidth and emission at 590 nm, 10 nm bandwidth. GraphPad Prism 5.0 (GraphPad Software, Inc., USA) was used to generate IC50 values via non-linear regression analysis.

The target in data set [4] is recombinant human Cathepsin D (Homo sapiens (Human), UniProt P07339). The data set is described as follows: Cathepsin D enzyme inhibition FRET assay. Conditions: Table 8; read-out: CatD IC50. It is filed as biochemical. The protocol:
The enzymatic inhibition activity assays were determined using the fluorescence resonance energy transfer (FRET) assay. The assays were performed in a 384-well plate format. […] The concentration of Cathepsin D was 20 ng/μL, and 1 ng/μL of Cathepsin E was used. CatD and CatE were activated by incubation in assay buffer (0.1 M NaOAc, 0.2 M NaCl, pH 3.5) at room temperature for 30 min. Subsequently, the rhBACE-1 substrate (R&D Systems, catalog# ES004), the Cathepsin D and Cathepsin E substrate (R&D Systems, Catalog # ES001) were added accordingly to final concentration 20 μM to initiate the reaction. After 60 min incubation at room temperature, the time-resolved fluorescence at Ex/Em=360 nm/460 nm was measured on an EnVision multilabel plate reader (Perkin-Elmer). The analytical software, GraphPad Prism 5.0 (GraphPad Software, Inc., USA) was used to generate IC50 values via non-linear regression analysis, which are reported in Tables 8-13 below as BACE1 IC50 values.

Data set [5] is described as follows: RLM metabolic stability assay. The class given is in vitro ADME. Conditions: pH 7.4, rat liver microsomes, read-out: RLM t1/2. The procedure: In this protocol, the metabolic stability of compounds at 1 μM was determined in Mouse Liver Microsome (MLM), rat liver microsomes (RLM) or human liver microsomes (HLM). […]. After incubation at 37° C. for a specific time period (0, 5, 10, 20 and 30 min), the reaction was terminated by the addition of 200 μL ice cold acetonitrile containing internal standard (100 ng/mL) after 100 μL aliquots of reaction mixture was removed. The quenched reaction mixtures were centrifuged at 3200 rpm for 5 min, and 100 μL of the supernatant were transferred to 96-well deep plate. The samples in 96 well plate were analyzed by LC-MS/MS using an Applied Biosystems-Sciex model API 3000 mass spectrometer. The data were analyzed using the following equations. […]
(In general: Microsomes from liver hold many membrane-bound enzymes, among them those of drug oxidation.)

Data set [6] addresses Plasmepsin (PM-4; Plm IV) (Plasmodium falciparum (isolate 3D7), UniProt Q8IM16). The data set is described as follows: Plasmepsin-4 enzyme inhibition assay. The conditions noted are these: Table 8. It is filed as biochemical. The procedure: Plasmepsin-2 (PM-2; Plm II) and Plasmepsin (PM-4; Plm IV) expression and purification was performed following the published protocols (Istvan E S and Goldberg D E, 2005). The final purified protein was activated by diluting the protein to 0.3 mg/mL in activating buffer (0.1 M citrate pH 4.5, 0.1% Tween-20, 50 mM dithiothreitol) and incubated at room temperature for 40 min, then the activated enzyme was diluted in assay buffer (50 mM sodium acetate pH 4.7, 0.01% Tween-20). The enzymatic inhibition reaction was performed in 384 well plates with a total volume of 20 μl. 10 μl of diluted PM-2 or PM-4 enzyme was added to the 384-well plate except blank wells (blank wells add 10 μL of assay buffer) and 20 nL of serials of diluted 1000× compounds were added to the wells with 520 Echo® Liquid Handling System (Labcyte Inc.). 10 μL PM-2 peptide substrate (AnaSpec, Cat#, 62050) with assay buffer was then added to final concentration of 20 μM to start the reaction. After incubation the reaction at room temperature for 60 min, the fluorescence intensity at Ex/Em=360 nm/535 nm was measured using EnVision multilabel plate reader (Perkin-Elmer). The IC50 values were obtained using Graph Pad Prism 4 and are reported in Tables 8 and 9 below as PM-2 IC50 values.

Data set [7] deals with Plasmodium falciparum Dd2 (multi-drug resistant). The data set is described as follows: In vitro antimalarial assay (malaria SYBR Green I-based fluorescence, MSF), Dd2. It is filed as cell-based. The protocol: In vitro antimalarial activity was determined by a malaria SYBR Green I-based fluorescence (MSF) method described previously by Smilkstein et al. (2004, which is incorporated herein by reference) with slight modification (Winter, et al., 2006, which is incorporated herein by reference). Stock solutions of each test drug were prepared in DMSO at a concentration of 20 mM. The drug solutions were serially diluted with culture medium and distributed to asynchronous parasite cultures on 96-well plates in quadruplicate in a total volume of 100 μL to achieve 0.5% parasitemia with a 2% hematocrit in a total volume of 100 pt. The plates were then incubated for 72 h at 37° C. After incubation, 100 μL of lysis buffer with 0.2 μL/mL SYBR Green I was added to each well. The plates were incubated at 37° C. for an hour in the dark and then placed in a 96-well fluorescence plate reader (Spectramax Gemini-EM; Molecular Diagnostics) with excitation and emission wavelengths at 497 nm and 520 nm, respectively, for measurement of fluorescence.
Antimalarial potency of compounds was determined by this technique for both Plasmodium falciparum 3D7 (CQ-sensitive) and Dd2 (multi-drug resistant) strains.

[8] abbreviates: 3D7, 48 h, read-out: Pf 3D7 IC50 (μM, 48 hr), 48 hr.
[9] abbreviates: 3D7, 72 h, read-out: Pf 3D7 IC50 (μM, 72 hr), 72 hr.
The mark [10] stands for this setting: 3D7, read-out: 3D7 IC50 (μM), Table 13.
[11] abbreviates: 3D7, read-out: Pf3D7 IC50 (μM), Table 10.
The mark [12] stands for this setting: 3D7, read-out: Pf 3D7 IC50, Table 8.
Setting [13] is: DD2, 72 h, read-out: Pf Dd2 IC50 (μM, 72 hr).

Structures are written as SMILES. Where two headings read alike, the source gives them in different places.

Plasmepsin (PM-4; Plm IV), sequence (Q8IM16 122-449 limits assumed): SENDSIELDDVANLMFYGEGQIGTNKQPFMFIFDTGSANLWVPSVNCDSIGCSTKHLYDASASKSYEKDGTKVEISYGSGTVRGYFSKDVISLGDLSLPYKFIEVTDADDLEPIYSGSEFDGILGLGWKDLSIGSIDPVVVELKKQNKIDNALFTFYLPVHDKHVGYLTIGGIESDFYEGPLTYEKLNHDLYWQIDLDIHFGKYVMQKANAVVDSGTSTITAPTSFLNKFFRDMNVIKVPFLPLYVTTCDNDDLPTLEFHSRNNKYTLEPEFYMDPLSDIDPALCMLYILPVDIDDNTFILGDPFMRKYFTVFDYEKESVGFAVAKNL
recombinant human Cathepsin D, sequence (P07339 65-412): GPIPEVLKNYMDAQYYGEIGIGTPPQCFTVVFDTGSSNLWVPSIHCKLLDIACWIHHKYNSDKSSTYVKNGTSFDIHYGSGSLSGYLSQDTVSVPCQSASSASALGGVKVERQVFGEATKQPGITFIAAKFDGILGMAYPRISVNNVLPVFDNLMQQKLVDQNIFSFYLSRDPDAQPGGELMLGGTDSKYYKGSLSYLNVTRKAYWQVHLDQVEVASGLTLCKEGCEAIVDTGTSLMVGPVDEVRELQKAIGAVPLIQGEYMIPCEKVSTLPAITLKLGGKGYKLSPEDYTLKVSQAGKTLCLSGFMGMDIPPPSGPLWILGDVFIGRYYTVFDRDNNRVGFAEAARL
Plasmepsin-2 (PM-2; Plm II), sequence (P46925 125-453 limits assumed): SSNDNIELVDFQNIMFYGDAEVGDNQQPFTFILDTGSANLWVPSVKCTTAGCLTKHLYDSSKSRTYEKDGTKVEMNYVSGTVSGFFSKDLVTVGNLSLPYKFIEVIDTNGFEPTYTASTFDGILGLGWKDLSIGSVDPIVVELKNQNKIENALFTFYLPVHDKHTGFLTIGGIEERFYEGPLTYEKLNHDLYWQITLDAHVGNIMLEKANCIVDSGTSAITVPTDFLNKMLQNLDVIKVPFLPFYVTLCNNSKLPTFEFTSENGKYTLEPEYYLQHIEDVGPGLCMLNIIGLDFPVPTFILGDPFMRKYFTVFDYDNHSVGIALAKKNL

By IC50 is commonly meant the concentration that inhibits the measured activity by half. Take `COc1ccc(C2(c3ccc(OC)cc3)NC(=N)N(C3CCOCC3)C2=O)cc1` [Example 176, 2-imino-5,5-bis(4-methoxyphenyl)-3-(oxan-4-yl)-imidazolidin-4-one]: the IC50 came to 7 nM in data set [1] (Table 8, read-out: PM-II IC50); 6.81 nM in data set [1] (Table 13, read-out: PM-2 IC50); 0.404 µM in data set [2] (setting [8]); 0.459 µM in data set [2] (setting [9]); 0.459 µM in data set [2] (setting [10]); 0.459 µM in data set [2] (setting [11]). Besides, the 50% inhibitory concentration (IC50) is 0.453 µM in data set [2] (setting [12]); > 50000 nM in data set [3]; > 10000 nM in data set [4]; 18 nM in data set [6]; 0.526 µM in data set [7] (setting [13]); 0.526 µM in data set [7] (DD2, read-out: Dd2 IC50 (μM)). The half-life at 1 μM in data set [5] was found to be 83 min.
On to `COc1ccc(C2(c3ccc(OC)cc3)NC(=N)N(C3CCN(C(=O)OC(C)(C)C)CC3)C2=O)cc1` [Example 206, tert-butyl 4-[2-imino-4,4-bis(4-methoxyphenyl)-5-oxoimidazolidin-1-yl]piperidine-1-carboxylate], for which the IC50 turned out to be 2 nM in data set [1] (Table 8, read-out: PM-II IC50); 2.76 nM in data set [1] (Table 13, read-out: PM-2 IC50); 0.339 µM in data set [2] (setting [8]); 0.383 µM in data set [2] (setting [9]); 0.436 µM in data set [2] (setting [10]); 0.436 µM in data set [2] (setting [11]). Besides, the half-maximal inhibitory concentration (IC50) in data set [2] (setting [12]) was found to be 0.383 µM; in data set [3], 8000 nM; in data set [4] it was 520 nM; in data set [6] it was 10 nM; in data set [7] (setting [13]), 0.367 µM. Moreover, in data set [5], the half-life at 1 μM stood at 14 min.
Take `COc1ccc(C2(c3ccc(OC)cc3)NC(=N)N(CC3CCOCC3)C2=O)cc1` [Example 275, 2-imino-5,5-bis(4-methoxyphenyl)-3-(oxan-4-ylmethyl)imidazolidin-4-one]: the 50% inhibitory concentration (IC50) in data set [1] (Table 8, read-out: PM-II IC50) is 17 nM; in data set [1] (Table 13, read-out: PM-2 IC50), 16.9 nM; in data set [2] (setting [8]), 0.571 µM; in data set [2] (setting [9]), 0.463 µM; in data set [2] (setting [10]), 0.521 µM; in data set [2] (setting [11]), 0.463 µM. Also, the IC50 in data set [2] (setting [12]) came out at 0.463 µM; in data set [3], 30000 nM; in data set [4] it was 934 nM; in data set [6], 59 nM; in data set [7] (setting [13]), 0.442 µM; in data set [7] (DD2, read-out: Dd2 IC50 (μM)) it was 0.442 µM. In addition, the half-life at 1 μM in data set [5] came to 35 min.

The values above are taken from patent publication US9353089B2, “Compositions and methods for the treatment of malaria” (Saint Louis University, priority 2013, dated 2016).
